Results from US6979664B1, “Composition for accelerating seed germination and plant growth” (Bios Agriculture Inc., priority 1998, dated 2005).

Legend:
Format in all cases: in vivo
[1] = tested on: Cotton; assay: seedling emergence under field condition; conditions: for seedling emergence under field condition: Cotton, six days after planting
Protocol: (§1) Seeds were surface sterilized with 2% sodium hypochlorite and soaked in different concentrations (10^−5, 10^−7, 10^−9M) of LCO solution for 12 h. Water served as the control. The study was conducted at the experimental field of the Macdonald campus of McGill University, Ste-Anne-de-Belleveue. Quebec, Canada. The field was ploughed to a fine tilth, seeds were hand planted in 1 m rows at 2.5 to 3 cm deep with three replications per treatment. […] The data was analyzed for significance by an ANOVA protected LSD test using SAS system Version 6.1 (SAS Inc., Cary, N.C., USA).

[2] = tested on: Corn; assay: seedling emergence under field condition; conditions: six days after planting
Protocol: as §1

[3] = tested on: Soybean; assay: seedling emergence under field condition; conditions: six days after planting
Protocol: as §1

[4] = tested on: Beet; assay: seedling emergence under field condition; conditions: six days after planting
Protocol: as §1

[5] = tested on: corn (Zea mays L.); assay: germination of corn after 72 h of treatment (petri plate); conditions: 25° C.
Protocol: Seeds of corn (cv Pioneer 3921) were surface sterilized in 2% sodium hypochlorite solution for 2 minutes and placed in 9 cm diameter Petri plates containing a sheet of filter paper soaked in 10 ml of the required test solution (LCO 10^−5–10^−13). Water served as the control. Observations on germination, length of root primodia and shoot were taken after 72 h of incubation at 25° C. The data was analyzed for significance by an ANOVA protected LSD test using SAS system Version 6.1 (SAS Inc., Cary, N.C., USA).

[6] = tested on: Zea mays; assay: seedling emergence at 25° C.
From the text: (§2) Plastic pots (7.5 cm dia) were filled with 15 g of autoclaved vermiculite. Seeds of corn (Zea mays—Poaceae), bean (Phaseolus vulgaris—Fabaceae), canola (Brassica napus—Brassicaceae), cucumber (Cucumis sativus—Cucurbitaceae), cantaloupe (Cucumis melo—Cucurbitaceae), cotton (Gossypium sp.—Malvaceae), lettuce (Lactuca sativa—Asteraceae), beet (Beta vulgaris—Chenopodiaceae), and soybean (Glycine max—Fabaceae), were placed at 2.5 cm deep at the rate of 5 or 10 seeds per pot. Pots were irrigated with either 25 mL of LCO solution at different concentrations (10^−6–10^−14M) or aqueous acetonitrile or water, as controls. Acetonitrile was included as one of the controls since LCO was purified in this solvent (see Example 3), after 4 days the pots were irrigated with 10 mL of water once every two days. Each treatment had 4 replications in a randomized block design. Pots were placed on a green house bench maintained at 25±2° C. with a day/night cycle 16/8 h and relative humidity of 70%, or in a growth chamber set at 15° C. with a 16:8 day/night cycle. […] As defined above, seedling emergence has occurred when growth of the plant can be observed above the rooting medium surface. The percent emergence was calculated. The data were analyzed with Statistical Analysis System, version 6.12 (SAS institute Inc. Cary, N.C., USA).

[7] = tested on: Letuca sativa; assay: seedling emergence at 25° C.
From the text: as §2

[8] = tested on: Phaseolus vulgaris; assay: seedling emergence at 25° C.
From the text: as §2

[9] = tested on: Cucumis melo; assay: seedling emergence at 25° C.
From the text: as §2

[10] = tested on: Glycine max; assay: seedling emergence at 25° C.
From the text: as §2

[11] = tested on: Gossypium sp.; assay: seedling emergence at 25° C.
From the text: as §2

[12] = tested on: Beta vulgaris; assay: seedling emergence at 25° C.
From the text: as §2

[13] = tested on: Cucumis sativus; assay: seedling emergence at 15° C.
From the text: as §2

[14] = tested on: Brassica napus; assay: seedling emergence at 15° C.
From the text: as §2

## CCCCCCC=CCCCCCCCCCC(=O)NC1C(OC2C(CO)OC(OC3C(CO)OC(OC4C(CO)OC(OC5C(COC6OC(C)C(O)C(O)C6OC)OC(O)C(NC(C)=O)C5O)C(NC(C)=O)C4O)C(NC(C)=O)C3O)C(NC(C)=O)C2O)OC(CO)C(O)C1O (centres unmarked) [LCO, NodBj-V(C18:1Δ11)]
[1]; 10^−7 M seed soak 12 h
  seedling emergence under field condition: 60.0 b
[1]; LCO 10^−5 M seed soak 12 h
  seedling emergence under field condition: 16.6 a
[1]; LCO 10^−9 M seed soak 12 h
  seedling emergence under field condition: 23.3 a
[1]; cotton, LCO at 10^−7M, field
  improvement of emergence as compared to the control: more than 9 times
[2]; 10^−7 M seed soak 12 h
  seedling emergence under field condition: 60.0 b
[2]; LCO 10^−5 M seed soak 12 h
  seedling emergence under field condition: 80.0 b
[2]; LCO 10^−9 M seed soak 12 h
  seedling emergence under field condition: 53.3 b
[3]; 10^−7 M seed soak 12 h
  seedling emergence under field condition: 33.3 b
[3]; LCO 10^−5 M seed soak 12 h
  seedling emergence under field condition: 26.6 ab
[3]; LCO 10^−9 M seed soak 12 h
  seedling emergence under field condition: 63.3 c
[4]; 10^−7 M seed soak 12 h
  seedling emergence under field condition: 46.6 c
[4]; LCO 10^−5 M seed soak 12 h
  seedling emergence under field condition: 28.3 a
[4]; LCO 10^−9 M seed soak 12 h
  seedling emergence under field condition: 38.3 ab
[5]; LCO 10^−5 M
  Length of root primodia: 53.0 ab mm
  Length of shoot primodia: 12.3 ab mm
  Percent germination: 80 bc Percent
[5]; LCO 10^−7 M
  Length of root primodia: 57.6 bc mm
  Length of shoot primodia: 15.0 ab mm
  Percent germination: 73.3 b Percent
[5]; LCO 10^−9 M
  Length of root primodia: 48.0 ab mm
  Length of shoot primodia: 9.6 a mm
  Percent germination: 73.3 b Percent
[5]; LCO 10^−11 M
  Length of root primodia: 78.6 c mm
  Length of shoot primodia: 21.0 b mm
  Percent germination: 100 c Percent
[5]; LCO 10^−13 M
  Length of root primodia: 43.0 bc mm
  Length of shoot primodia: 8.3 a mm
  Percent germination: 80 bc Percent
[6]; 10^−6 M
  seedling emergence (%): 76 ab %
[6]; 10^−7 M
  seedling emergence (%): 68 abc %
[6]; 10^−8 M
  seedling emergence (%): 84 a %
[6]; 10^−9 M
  seedling emergence (%): 88 a %
[6]; 10^−10 M
  seedling emergence (%): 84 a %
[6]; 10^−11 M
  seedling emergence (%): 68 abc %
[6]; 10^−12 M
  seedling emergence (%): 48 abc %
[6]; 10^−13 M
  seedling emergence (%): 40 c %
[6]; 10^−14 M
  seedling emergence (%): 40 c %
[7]; 10^−6 M
  seedling emergence (%): 45 a %
[7]; 10^−7 M
  seedling emergence (%): 35 ab %
[7]; 10^−8 M
  seedling emergence (%): 10 dc %
[7]; 10^−9 M
  seedling emergence (%): 20 bcd %
[7]; 10^−10 M
  seedling emergence (%): 25 abcd %
[7]; 10^−11 M
  seedling emergence (%): 26 abcd %
[7]; 10^−12 M
  seedling emergence (%): 30 abc %
[7]; 10^−13 M
  seedling emergence (%): 5 d %
[7]; 10^−14 M
  seedling emergence (%): 10 d %
[8]; 10^−6 M
  seedling emergence (%): 67 abc %
[8]; 10^−7 M
  seedling emergence (%): 89 a %
[8]; 10^−8 M
  seedling emergence (%): 78 ab %
[8]; 10^−9 M
  seedling emergence (%): 67 abc %
[8]; 10^−10 M
  seedling emergence (%): 44 abc %
[8]; 10^−11 M
  seedling emergence (%): 22 c %
[8]; 10^−12 M
  seedling emergence (%): 33 bc %
[8]; 10^−13 M
  seedling emergence (%): 33 bc %
[8]; 10^−14 M
  seedling emergence (%): 33 bc %
[9]; 10^−7 M
  seedling emergence (%): 100 b %
[9]; 10^−9 M
  seedling emergence (%): 100 b %
[9]; 10^−11 M
  seedling emergence (%): 100 b %
[9]; 10^−13 M
  seedling emergence (%): 100 b %
[10]; 10^−6 M
  seedling emergence (%): 65 d %
[10]; 10^−7 M
  seedling emergence (%): 80 bc %
[10]; 10^−8 M
  seedling emergence (%): 90 ab %
[10]; 10^−9 M
  seedling emergence (%): 100 a %
[10]; 10^−10 M
  seedling emergence (%): 70 cd %
[10]; 10^−11 M
  seedling emergence (%): 50 e %
[10]; 10^−12 M
  seedling emergence (%): 80 bc %
[10]; 10^−13 M
  seedling emergence (%): 70 cd %
[10]; 10^−14 M
  seedling emergence (%): 70 cd %
[11]; 10^−6 M
  seedling emergence (%): 88 a %
[11]; 10^−7 M
  seedling emergence (%): 66 ab %
[11]; 10^−8 M
  seedling emergence (%): 88 a %
[11]; 10^−9 M
  seedling emergence (%): 88 a %
[11]; 10^−10 M
  seedling emergence (%): 88 a %
[12]; 10^−7 M
  seedling emergence (%): 66.6%
[12]; 10^−9 M
  seedling emergence (%): 66 b %
[12]; 10^−11 M
  seedling emergence (%): 86 b %
[12]; 10^−13 M
  seedling emergence (%): 80 b %
[13]; 10^−6M
  seedling emergence: 65 abc
[13]; 10^−7M
  seedling emergence: 85 ab
[13]; 10^−8M
  seedling emergence: 80 ab
[13]; 10^−9M
  seedling emergence: 70 abc
[13]; 10^−10M
  seedling emergence: 50 c
[13]; 10^−11M
  seedling emergence: 80 ab
[13]; 10^−12M
  seedling emergence: 80 ab
[13]; 10^−13M
  seedling emergence: 70 abc
[13]; 10^−14M
  seedling emergence: 70 abc
[14]; 10^−6M
  seedling emergence: 35 bc
[14]; 10^−7M
  seedling emergence: 32 c
[14]; 10^−8M
  seedling emergence: 35 bc
[14]; 10^−9M
  seedling emergence: 52 ab
[14]; 10^−10M
  seedling emergence: 62 a
[14]; 10^−11M
  seedling emergence: 47 bc
[14]; 10^−12M
  seedling emergence: 45 bc
[14]; 10^−13M
  seedling emergence: 37 bc
[14]; 10^−14M
  seedling emergence: 30 c
